From PMC6631223, “Chain-Branched Polyhydroxylated Octahydro-1H-Indoles as Potential Leads against Lysosomal Storage Diseases” (Pharmaceuticals, 2019) come the findings set out here.

Marks after values point to notes of the source that are not given here.

What all share (assay type): biochemical
One assay has as its system Rat intestinal maltase. Description: Glycosidase inhibition: rat intestinal maltase. The following applies: maltose, pH 6.8, 1000 μM. The source says: (§1) The enzymes α-glucosidase (from yeast, rice), β-glucosidase (from almonds, bovine liver), α-galactosidase (from coffee beans), β-galactosidase (from bovine liver), α-mannosidase (from jack beans), β-mannosidase (from snails), α-L-fucosidase (from bovine kidney), α-L-rhamnosidase (from Penicillium decumbens), β-glucuronidases (from Escherichia coli), α,α-trehalase (from porcine kidney), amyloglucosidase (from Aspergillus niger), p-nitrophenyl glycosides, and various disaccharides were purchased from Sigma-Aldrich Co. Brush border membranes were prepared from the rat small intestine according to the method of Kessler et al., and were assayed at pH 6.8 for rat intestinal maltase using maltose. For rat intestinal glucosidases and porcine kidney trehalase activities, the reaction mixture (0.2 mL) contained 25 mM substrate and the appropriate amount of enzyme, and the incubations were performed for 10 min at 37 °C. The reaction was stopped by heating at 100 °C for 3 min. After centrifugation (600 g; 10 min), 0.035 mL of the resulting reaction mixture were added to 2.1 mL of the Glucose CII-test Wako (Wako Pure Chemical Ind., Osaka, Japan). The absorbance at 505 nm was measured to determine the amount of the released D-glucose. Other glycosidase activities were determined using an appropriate p-nitrophenyl glycoside as substrate at the optimum pH of each enzyme. The reaction mixture (0.2 mL) contained 2 mM of the substrate and the appropriate amount of enzyme. The reaction was stopped by adding 0.4 mL of 400 mM Na2CO3. The released p-nitrophenol was measured spectrometrically at 400 nm.

The next assay deals with T1, Amyloglucosidase (Aspergillus niger, UniProt P69328).
T1 construct: purchased Sigma-Aldrich Co
T1 sequence (P69328 25-640): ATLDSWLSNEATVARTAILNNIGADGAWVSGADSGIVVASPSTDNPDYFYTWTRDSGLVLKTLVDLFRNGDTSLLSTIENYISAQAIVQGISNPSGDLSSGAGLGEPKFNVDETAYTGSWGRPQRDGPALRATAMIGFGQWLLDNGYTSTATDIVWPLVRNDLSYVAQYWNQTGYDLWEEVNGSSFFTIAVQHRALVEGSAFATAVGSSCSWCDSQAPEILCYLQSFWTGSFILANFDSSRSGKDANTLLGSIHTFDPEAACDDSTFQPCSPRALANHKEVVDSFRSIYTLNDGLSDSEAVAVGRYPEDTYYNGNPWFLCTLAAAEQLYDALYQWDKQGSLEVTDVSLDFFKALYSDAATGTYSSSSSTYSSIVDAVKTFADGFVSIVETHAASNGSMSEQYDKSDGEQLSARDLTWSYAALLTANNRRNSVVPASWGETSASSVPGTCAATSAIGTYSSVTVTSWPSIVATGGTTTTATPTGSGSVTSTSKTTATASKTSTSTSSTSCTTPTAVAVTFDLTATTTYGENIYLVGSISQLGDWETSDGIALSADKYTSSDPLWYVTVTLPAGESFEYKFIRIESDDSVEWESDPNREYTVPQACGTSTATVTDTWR
The experiment in a line: Glycosidase inhibition: amyloglucosidase (Aspergillus niger). The following applies: amyloglucosidase, Aspergillus niger; 1000 μM.
Excerpt: as §1

For assay [1], the target named is T2, β-Galactosidase (bovine liver) (Bos taurus, UniProt Q58D55).
T2 sequence (Q58D55 28-653): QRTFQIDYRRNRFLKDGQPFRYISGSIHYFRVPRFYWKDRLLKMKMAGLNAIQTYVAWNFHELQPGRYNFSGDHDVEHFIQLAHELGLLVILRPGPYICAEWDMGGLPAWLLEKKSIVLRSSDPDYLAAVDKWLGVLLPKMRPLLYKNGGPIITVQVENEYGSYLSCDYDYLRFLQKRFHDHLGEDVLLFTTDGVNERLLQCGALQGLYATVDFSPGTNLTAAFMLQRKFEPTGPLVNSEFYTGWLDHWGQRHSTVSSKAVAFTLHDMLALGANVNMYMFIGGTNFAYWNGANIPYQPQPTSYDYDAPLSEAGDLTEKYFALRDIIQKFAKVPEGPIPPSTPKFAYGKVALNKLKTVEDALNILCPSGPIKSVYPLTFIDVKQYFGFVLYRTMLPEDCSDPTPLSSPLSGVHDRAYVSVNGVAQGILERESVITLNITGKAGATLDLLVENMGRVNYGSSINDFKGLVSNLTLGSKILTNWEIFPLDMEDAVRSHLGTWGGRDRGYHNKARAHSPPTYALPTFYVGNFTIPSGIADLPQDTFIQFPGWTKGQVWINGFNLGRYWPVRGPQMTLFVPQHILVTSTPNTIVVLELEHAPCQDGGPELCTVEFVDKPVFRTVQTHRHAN
Description: Glycosidase inhibition: β-galactosidase (bovine liver).
Excerpt: as §1, with “After centrifugation (600 g; 10 min), 0.035 mL of the resulting reaction mixture were added to 2.1 mL of the Glucose CII-test Wako (Wako Pure Chemical Ind., Osaka, Japan).” left out, “The reaction mixture (0.2 mL) contained 2 mM of the substrate and the appropriate amount of enzyme. The reaction was stopped by adding 0.4 mL of 400 mM Na2CO3.” left out

Assay [2] concerns the target T3, β-Glucosidase (bovine liver) (Bos taurus, UniProt F1MNT6).
T3 sequence (F1MNT6 1-469): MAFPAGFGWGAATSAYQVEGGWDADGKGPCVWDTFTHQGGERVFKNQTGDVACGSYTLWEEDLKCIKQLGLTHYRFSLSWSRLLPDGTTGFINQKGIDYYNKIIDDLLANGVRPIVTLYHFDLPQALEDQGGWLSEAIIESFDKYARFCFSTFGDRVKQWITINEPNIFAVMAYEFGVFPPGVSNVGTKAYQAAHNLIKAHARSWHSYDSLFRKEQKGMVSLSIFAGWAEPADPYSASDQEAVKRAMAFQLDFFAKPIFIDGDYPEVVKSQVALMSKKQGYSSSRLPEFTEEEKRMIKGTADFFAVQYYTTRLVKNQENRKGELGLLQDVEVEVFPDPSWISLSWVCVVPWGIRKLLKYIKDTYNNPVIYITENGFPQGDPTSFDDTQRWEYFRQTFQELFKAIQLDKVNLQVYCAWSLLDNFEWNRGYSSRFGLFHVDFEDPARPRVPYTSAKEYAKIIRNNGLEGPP
The experiment in a line: Glycosidase inhibition: β-glucosidase (bovine liver).
Excerpt: as §1, with “After centrifugation (600 g; 10 min), 0.035 mL of the resulting reaction mixture were added to 2.1 mL of the Glucose CII-test Wako (Wako Pure Chemical Ind., Osaka, Japan).” left out, “The reaction mixture (0.2 mL) contained 2 mM of the substrate and the appropriate amount of enzyme. The reaction was stopped by adding 0.4 mL of 400 mM Na2CO3.” left out

A further assay has as its system β-Glucosidase (almond). Description: Glycosidase inhibition: β-glucosidase (almond). The settings on record: 1000 μM.
Excerpt: as §1

For the next assay, the target named is T4, α-Glucosidase (yeast) (Saccharomyces cerevisiae, UniProt P53341).
T4 construct: purchased Sigma-Aldrich Co
T4 sequence (P53341 whole entry): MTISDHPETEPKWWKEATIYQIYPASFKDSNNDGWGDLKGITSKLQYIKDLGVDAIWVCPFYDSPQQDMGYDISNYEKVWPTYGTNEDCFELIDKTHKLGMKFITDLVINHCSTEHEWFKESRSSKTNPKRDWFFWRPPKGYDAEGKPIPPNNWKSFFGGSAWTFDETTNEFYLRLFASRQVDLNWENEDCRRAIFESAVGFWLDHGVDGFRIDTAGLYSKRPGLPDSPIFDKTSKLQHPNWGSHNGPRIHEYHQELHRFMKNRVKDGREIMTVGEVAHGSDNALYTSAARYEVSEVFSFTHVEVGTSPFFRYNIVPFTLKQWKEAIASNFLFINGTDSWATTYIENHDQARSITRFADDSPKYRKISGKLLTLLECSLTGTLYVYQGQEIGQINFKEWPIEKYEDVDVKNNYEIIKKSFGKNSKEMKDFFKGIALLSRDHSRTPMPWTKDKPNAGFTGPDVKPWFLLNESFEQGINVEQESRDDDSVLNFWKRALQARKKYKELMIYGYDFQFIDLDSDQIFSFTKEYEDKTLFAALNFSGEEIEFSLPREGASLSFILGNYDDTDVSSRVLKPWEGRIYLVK
The experiment in a line: Glycosidase inhibition: α-glucosidase (yeast). The following applies: α-glucosidase, yeast; 1000 μM.
Excerpt: as §1

The next assay concerns the target α-L-Rhamnosidase (Penicillium decumbens, UniProt S7ZS15). The experiment in a line: Glycosidase inhibition: α-L-rhamnosidase (Penicillium decumbens).
Excerpt: as §1, with “After centrifugation (600 g; 10 min), 0.035 mL of the resulting reaction mixture were added to 2.1 mL of the Glucose CII-test Wako (Wako Pure Chemical Ind., Osaka, Japan).” left out, “The reaction mixture (0.2 mL) contained 2 mM of the substrate and the appropriate amount of enzyme. The reaction was stopped by adding 0.4 mL of 400 mM Na2CO3.” left out

α-L-Rhamnosidase, sequence (S7ZS15 entry or part of it): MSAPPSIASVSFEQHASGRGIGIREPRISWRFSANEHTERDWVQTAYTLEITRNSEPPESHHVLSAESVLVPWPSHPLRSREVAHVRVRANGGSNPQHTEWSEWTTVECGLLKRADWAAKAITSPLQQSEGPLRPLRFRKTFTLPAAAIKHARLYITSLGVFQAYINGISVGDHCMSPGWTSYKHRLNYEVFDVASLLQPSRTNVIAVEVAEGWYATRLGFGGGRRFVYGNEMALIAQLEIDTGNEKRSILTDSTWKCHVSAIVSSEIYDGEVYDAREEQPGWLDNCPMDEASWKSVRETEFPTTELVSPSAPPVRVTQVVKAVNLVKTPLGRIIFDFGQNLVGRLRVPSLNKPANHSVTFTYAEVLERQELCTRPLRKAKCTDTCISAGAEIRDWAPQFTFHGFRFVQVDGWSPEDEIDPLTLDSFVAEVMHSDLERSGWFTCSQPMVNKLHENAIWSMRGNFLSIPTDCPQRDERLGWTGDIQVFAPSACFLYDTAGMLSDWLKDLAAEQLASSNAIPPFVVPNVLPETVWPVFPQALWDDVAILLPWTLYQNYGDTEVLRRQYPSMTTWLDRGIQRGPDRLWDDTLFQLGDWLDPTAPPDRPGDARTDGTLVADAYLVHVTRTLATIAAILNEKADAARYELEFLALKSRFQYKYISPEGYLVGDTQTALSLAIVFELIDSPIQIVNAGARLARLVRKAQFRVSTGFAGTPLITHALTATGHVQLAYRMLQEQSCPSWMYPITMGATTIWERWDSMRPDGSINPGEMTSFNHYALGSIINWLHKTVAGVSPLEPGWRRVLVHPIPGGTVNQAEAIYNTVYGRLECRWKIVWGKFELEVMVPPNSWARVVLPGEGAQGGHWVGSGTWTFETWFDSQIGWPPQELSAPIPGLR

Turning to `CC[C@@H]1CN[C@H]2C[C@@H](O)[C@H](O)[C@@H](O)[C@H]12` [Compound 10, (3S,3aR,4S,5S,6R,7aS)-3-Ethyloctahydro-1H-indole-4,5,6-triol], the “inhibition % at 1000 μM” value was 4.1% ^a in the assay on Rat intestinal maltase and 12% ^a with β-Glucosidase (almond). The inhibition (as a rule, the change of the read-out against control, counted positive when it falls) at 1000 µM was 0% against Amyloglucosidase; less than 50% in assay [1]; 0% in assay [2]; 16% on α-Glucosidase (yeast); 0% against α-L-Rhamnosidase.

As for `CC[C@H]1CN[C@H]2C[C@@H](O)[C@H](O)[C@@H](O)[C@H]12` [Compound 13, (3R,3aR,4S,5S,6R,7aS)-3-ethyloctahydro-1H-indole-4,5,6-triol], the “inhibition % at 1000 μM” value was 0% ^a in the assay on Rat intestinal maltase and 5% ^a in the assay on β-Glucosidase (almond). In addition, the inhibition at 1000 µM at Amyloglucosidase is 0%; in assay [1] it was less than 50%; in assay [2], 21.7%; against α-Glucosidase (yeast), 19.5%; on α-L-Rhamnosidase it was 0%.
